Laboratory results reported in the NIST ThermoML archive (doi:10.1016/j.fluid.2009.03.002).
Numbers after ± are expanded uncertainties.

Experiments:
[1] = cn = amount concentration of the nth substance listed, in mol/dm3; settings: 101 kPa, Liquid, Direct current cell with electrodes
[2] = wn = mass fraction of the nth substance listed; settings: 101 kPa, Liquid; for viscosity: Capillary tube (Ostwald / Ubbelohde) method; for mass density: Pycnometric method
[3] = relative permittivity at zero frequency (dimensionless); wn = mass fraction of the nth substance listed; settings: 101 kPa, Liquid, Parallel plate capacitor

[I-].[Na+] [sodium iodide] + CO
molar conductivity [S·m2/mol], [1]
Settings | 293.15 K | 298.15 K | 303.15 K
c1 = 0.0007005 | 0.008344 ± 1e-06 | 0.008814 ± 1e-06 | 0.0098 ± 1e-06
c1 = 0.001005 | 0.008236 ± 1e-06 | 0.008686 ± 1e-06 | 0.00954 ± 1e-06
c1 = 0.001541 | 0.00804 ± 1e-06 | 0.008464 ± 1e-06 | 0.009246 ± 1e-06
c1 = 0.001778 | 0.007969 ± 1e-06 | 0.008407 ± 1e-06 | 0.009148 ± 1e-06
c1 = 0.001998 | – | 0.008329 ± 1e-06 | –
c1 = 0.002202 | – | – | 0.009014 ± 1e-06
c1 = 0.002391 | 0.00784 ± 1e-06 | 0.00825 ± 1e-06 | 0.00896 ± 1e-06
c1 = 0.002569 | 0.007786 ± 1e-06 | 0.008171 ± 1e-06 | 0.008907 ± 1e-06
c1 = 0.003036 | 0.007688 ± 1e-06 | – | –
c1 = 0.003173 | – | 0.008019 ± 1e-06 | 0.00852 ± 1e-06
c1 = 0.003425 | – | 0.007956 ± 1e-06 | 0.00846 ± 1e-06
c1 = 0.003541 | 0.0076 ± 1e-06 | – | –
c1 = 0.00365 | – | 0.007907 ± 1e-06 | 0.0084 ± 1e-06
c1 = 0.003754 | 0.007556 ± 1e-06 | – | –
c1 = 0.004122 | 0.0075 ± 1e-06 | – | –
c1 = 0.004203 | – | 0.007791 ± 1e-06 | 0.00825 ± 1e-06
c1 = 0.004684 | 0.007431 ± 1e-06 | – | –
c1 = 0.004742 | – | 0.007697 ± 1e-06 | –
c1 = 0.004852 | – | – | 0.00804 ± 1e-06
c1 = 0.004954 | – | 0.007663 ± 1e-06 | –
c1 = 0.005049 | – | – | 0.008 ± 1e-06
c1 = 0.005094 | 0.007356 ± 1e-06 | – | –
c1 = 0.005504 | – | 0.007571 ± 1e-06 | –
c1 = 0.005623 | – | – | 0.00782 ± 1e-06
c1 = 0.005651 | 0.007288 ± 1e-06 | – | –
c1 = 0.006031 | – | 0.007494 ± 1e-06 | –
c1 = 0.00618 | 0.007194 ± 1e-06 | – | –
c1 = 0.006252 | – | – | 0.0076 ± 1e-06
c1 = 0.006529 | 0.00715 ± 1e-06 | – | –

OCCO [1,2-ethanediol] + CO
Settings | mass density, 293.15 K [kg/m3] | mass density, 298.15 K [kg/m3] | mass density, 303.15 K [kg/m3] | relative permittivity at zero frequency, 293.15 K | relative permittivity at zero frequency, 298.15 K | relative permittivity at zero frequency, 303.15 K | viscosity, 293.15 K [mPa·s] | viscosity, 298.15 K [mPa·s] | viscosity, 303.15 K [mPa·s]
[2], w1 = 0.25 | 864.7 ± 6 | 860.9 ± 6 | 858.6 ± 6 | – | – | – | 1.127 ± 0.01 | 1.03 ± 0.0098 | 0.9454 ± 0.0094
[2], w1 = 0.5 | 938.3 ± 6 | 933.8 ± 6 | 932.1 ± 6 | – | – | – | 2.269 ± 0.018 | 2.045 ± 0.017 | 1.81 ± 0.015
[2], w1 = 0.75 | 1023.4 ± 6 | 1019.6 ± 6 | 1017.3 ± 6 | – | – | – | 5.8 ± 0.042 | 4.904 ± 0.036 | 4.232 ± 0.032
[3], w1 = 0.25 | – | – | – | 35.2 ± 0.1 | 34.7 ± 0.1 | 33.7 ± 0.1 | – | – | –
[3], w1 = 0.5 | – | – | – | 37.3 ± 0.1 | 36.7 ± 0.1 | 35.6 ± 0.1 | – | – | –
[3], w1 = 0.75 | – | – | – | 39.3 ± 0.1 | 38.7 ± 0.1 | 37.4 ± 0.1 | – | – | –

CC(=O)[O-].[Na+] [sodium ethanoate] + CO
molar conductivity [S·m2/mol], [1]
Settings | 293.15 K | 298.15 K | 303.15 K
c1 = 0.0007037 | 0.007613 ± 1e-06 | 0.00835 ± 1e-06 | 0.00893 ± 1e-06
c1 = 0.00101 | 0.007497 ± 1e-06 | 0.00824 ± 1e-06 | 0.00857 ± 1e-06
c1 = 0.00129 | – | 0.008107 ± 1e-06 | –
c1 = 0.001548 | 0.007306 ± 1e-06 | – | 0.00804 ± 1e-06
c1 = 0.001786 | 0.007275 ± 1e-06 | 0.007949 ± 1e-06 | 0.00786 ± 1e-06
c1 = 0.002007 | – | 0.007893 ± 1e-06 | 0.0078 ± 1e-06
c1 = 0.002402 | 0.007159 ± 1e-06 | 0.007788 ± 1e-06 | 0.00754 ± 1e-06
c1 = 0.00258 | 0.007131 ± 1e-06 | 0.007732 ± 1e-06 | 0.0074 ± 1e-06
c1 = 0.003188 | 0.006994 ± 1e-06 | 0.007579 ± 1e-06 | 0.00714 ± 1e-06
c1 = 0.003441 | 0.006947 ± 1e-06 | 0.007529 ± 1e-06 | 0.00696 ± 1e-06
c1 = 0.003667 | 0.006913 ± 1e-06 | 0.007475 ± 1e-06 | 0.00692 ± 1e-06
c1 = 0.004222 | 0.006825 ± 1e-06 | 0.007371 ± 1e-06 | 0.0068 ± 1e-06
c1 = 0.004764 | 0.006759 ± 1e-06 | 0.007263 ± 1e-06 | –
c1 = 0.004874 | – | – | 0.00643 ± 1e-06
c1 = 0.004976 | 0.006732 ± 1e-06 | 0.007194 ± 1e-06 | –
c1 = 0.005072 | – | – | 0.00634 ± 1e-06
c1 = 0.005529 | – | 0.007125 ± 1e-06 | –
c1 = 0.005591 | 0.006636 ± 1e-06 | – | –
c1 = 0.005649 | – | – | 0.0062 ± 1e-06
c1 = 0.005756 | 0.006636 ± 1e-06 | – | –
c1 = 0.005898 | – | 0.007044 ± 1e-06 | –
c1 = 0.005982 | – | – | 0.00612 ± 1e-06
c1 = 0.006002 | – | 0.00701 ± 1e-06 | –
c1 = 0.006253 | 0.006557 ± 1e-06 | – | –
c1 = 0.006281 | – | – | 0.00612 ± 1e-06
c1 = 0.006493 | 0.00653 ± 1e-06 | – | –

CO [methanol] + OCCO
w2 = 0
Settings | mass density, 293.15 K [kg/m3] | mass density, 298.15 K [kg/m3] | mass density, 303.15 K [kg/m3] | relative permittivity at zero frequency, 293.15 K | relative permittivity at zero frequency, 298.15 K | relative permittivity at zero frequency, 303.15 K | viscosity, 293.15 K [mPa·s] | viscosity, 298.15 K [mPa·s] | viscosity, 303.15 K [mPa·s]
[2] | 791 ± 6 | 785.9 ± 6 | 781.4 ± 6 | – | – | – | 0.5814 ± 0.0076 | 0.5436 ± 0.0074 | 0.5112 ± 0.0073
[3] | – | – | – | 33.1 ± 0.1 | 32.7 ± 0.1 | 31.9 ± 0.1 | – | – | –

N#C[S-].[Na+] [sodium thiocyanate] + CO
molar conductivity [S·m2/mol], [1]
Settings | 293.15 K | 298.15 K | 303.15 K
c1 = 0.0006986 | 0.00956 ± 1e-06 | 0.01035 ± 1e-06 | 0.01085 ± 1e-06
c1 = 0.001002 | 0.009407 ± 1e-06 | 0.010245 ± 1e-06 | –
c1 = 0.001281 | – | – | 0.0106 ± 1e-06
c1 = 0.001537 | 0.009271 ± 1e-06 | 0.0101 ± 1e-06 | 0.010507 ± 1e-06
c1 = 0.001773 | 0.009192 ± 1e-06 | 0.010014 ± 1e-06 | 0.01045 ± 1e-06
c1 = 0.002195 | – | 0.009936 ± 1e-06 | 0.010314 ± 1e-06
c1 = 0.002385 | 0.008993 ± 1e-06 | 0.009871 ± 1e-06 | 0.010271 ± 1e-06
c1 = 0.002561 | 0.00895 ± 1e-06 | 0.009821 ± 1e-06 | 0.010214 ± 1e-06
c1 = 0.003164 | 0.008836 ± 1e-06 | 0.009707 ± 1e-06 | 0.01008 ± 1e-06
c1 = 0.003415 | 0.008784 ± 1e-06 | 0.009675 ± 1e-06 | 0.010014 ± 1e-06
c1 = 0.00364 | – | 0.009616 ± 1e-06 | 0.009979 ± 1e-06
c1 = 0.003842 | 0.00872 ± 1e-06 | – | –
c1 = 0.004191 | 0.008664 ± 1e-06 | 0.009507 ± 1e-06 | 0.009864 ± 1e-06
c1 = 0.004343 | 0.00868 ± 1e-06 | – | –
c1 = 0.004729 | – | 0.009414 ± 1e-06 | –
c1 = 0.004838 | 0.008578 ± 1e-06 | – | 0.009735 ± 1e-06
c1 = 0.005035 | 0.008541 ± 1e-06 | – | 0.009713 ± 1e-06
c1 = 0.005489 | – | 0.009293 ± 1e-06 | –
c1 = 0.005607 | – | – | 0.0096 ± 1e-06
c1 = 0.005662 | 0.008477 ± 1e-06 | – | –
c1 = 0.005855 | – | 0.00925 ± 1e-06 | –
c1 = 0.006014 | – | 0.009229 ± 1e-06 | –
c1 = 0.006261 | – | – | 0.009493 ± 1e-06
c1 = 0.006336 | 0.008396 ± 1e-06 | – | –
